{
  "source": "paper PMC5218480",
  "about": "(PLoS ONE, 2017)",
  "system": "MV-4-11 cells",
  "test": "Gene expression microarray analysis (Affymetrix PrimeView) and GSEA",
  "assay_type": "cell-based, human",
  "parameters": "RFU PODN (11730768_x_at) / Fold change /veh PODN (11730768_x_at) / RFU LINC00158 (11744669_a_at) / Fold change /veh LINC00158 (11744669_a_at) / RFU DUSP10 (11751237_a_at) / Fold change /veh DUSP10 (11751237_a_at) / RFU ID3 (11757404_x_at) / Fold change /veh ID3 (11757404_x_at) / RFU PLEKHG5 (11737974_s_at) / Fold change /veh PLEKHG5 (11737974_s_at) / RFU LRRC4B (11730491_at) / Fold change /veh LRRC4B (11730491_at) / RFU GIMAP4 (11747438_a_at) / Fold change /veh GIMAP4 (11747438_a_at) / RFU KRT8 (11758183_x_at) / Fold change /veh KRT8 (11758183_x_at) / RFU CNN1 (11734310_a_at) / Fold change /veh CNN1 (11734310_a_at) / RFU VPS37D (11726825_at) / Fold change /veh VPS37D (11726825_at) / RFU C10orf10 (11716522_x_at) / Fold change /veh C10orf10 (11716522_x_at) / RFU KIR2DL2 /// KIR2DL4 /// KIR2DL5A /// KIR2DL5B /// KIR2DS1 /// KIR2DS2 /// KIR2DS3 /// KIR2DS4 /// KIR3DL3 /// KIR3DL3 /// KIR3DS1 (11738374_at) / Fold change /veh KIR2DL2 /// KIR2DL4 /// KIR2DL5A /// KIR2DL5B /// KIR2DS1 /// KIR2DS2 /// KIR2DS3 /// KIR2DS4 /// KIR3DL3 /// KIR3DL3 /// KIR3DS1 (11738374_at) / RFU C1QL1 (11718748_at) / Fold change /veh C1QL1 (11718748_at) / RFU TMPRSS4 (11747572_a_at) / Fold change /veh TMPRSS4 (11747572_a_at) / RFU HAMP (11756126_x_at) / Fold change /veh HAMP (11756126_x_at) / RFU RNFT2 (11725882_a_at) / Fold change /veh RNFT2 (11725882_a_at) / RFU NR4A2 (11747474_a_at) / Fold change /veh NR4A2 (11747474_a_at) / RFU ABCC12 (11746883_a_at) / Fold change /veh ABCC12 (11746883_a_at) / RFU TMEM136 (11760407_x_at) / Fold change /veh TMEM136 (11760407_x_at) / RFU CLDN22 /// WWC2 (11732394_at) / Fold change /veh CLDN22 /// WWC2 (11732394_at) / RFU HLA-DPB1 (11760878_x_at) / Fold change /veh HLA-DPB1 (11760878_x_at) / RFU SPINT1 (11716480_a_at) / Fold change /veh SPINT1 (11716480_a_at) / RFU GAP43 (11754022_s_at) / Fold change /veh GAP43 (11754022_s_at) / RFU A4GNT (11735810_at) / Fold change /veh A4GNT (11735810_at) / RFU PRB3 (11715151_x_at) / Fold change /veh PRB3 (11715151_x_at) / RFU TUBB4B (11761932_at) / Fold change /veh TUBB4B (11761932_at) / RFU CAPN14 (11732068_a_at) / Fold change /veh CAPN14 (11732068_a_at) / RFU TMCC2 (11721928_a_at) / Fold change /veh TMCC2 (11721928_a_at) / RFU IRGQ (11745062_a_at) / Fold change /veh IRGQ (11745062_a_at) / RFU FAM174B (11720279_a_at) / Fold change /veh FAM174B (11720279_a_at) / RFU TMPRSS4 (11748680_a_at) / Fold change /veh TMPRSS4 (11748680_a_at) / RFU FAM212B (11763350_a_at) / Fold change /veh FAM212B (11763350_a_at) / RFU PLEKHG5 (11743358_a_at) / Fold change /veh PLEKHG5 (11743358_a_at) / RFU ZSCAN30 (11745921_a_at) / Fold change /veh ZSCAN30 (11745921_a_at) / RFU CMKLR1 (11741424_a_at) / Fold change /veh CMKLR1 (11741424_a_at) / RFU LOC101060620 /// MAPK8IP1 (11723275_at) / Fold change /veh LOC101060620 /// MAPK8IP1 (11723275_at) / RFU SPTSSB (11747773_x_at) / Fold change /veh SPTSSB (11747773_x_at) / RFU PRSS12 (11739890_at) / Fold change /veh PRSS12 (11739890_at) / RFU BIN1 (11741810_x_at) / Fold change /veh BIN1 (11741810_x_at) / RFU WNT11 (11732464_a_at) / Fold change /veh WNT11 (11732464_a_at) / RFU C10orf10 (11716521_a_at) / Fold change /veh C10orf10 (11716521_a_at) / RFU C5orf56 (11738089_at) / Fold change /veh C5orf56 (11738089_at) / RFU CYB561 (11721691_x_at) / Fold change /veh CYB561 (11721691_x_at) / RFU ANKRD19P (11752326_a_at) / Fold change /veh ANKRD19P (11752326_a_at) / RFU OR2T12 /// OR2T33 /// OR2T8 (11738714_s_at) / Fold change /veh OR2T12 /// OR2T33 /// OR2T8 (11738714_s_at) / RFU VCAN (11748164_a_at) / Fold change /veh VCAN (11748164_a_at) / RFU JSRP1 (11732532_at) / Fold change /veh JSRP1 (11732532_at) / RFU KRTAP10-11 (11738290_x_at) / Fold change /veh KRTAP10-11 (11738290_x_at) / RFU MYO3A (11730013_a_at) / Fold change /veh MYO3A (11730013_a_at) / RFU EBF3 (11725865_a_at) / Fold change /veh EBF3 (11725865_a_at) / RFU CAMK2N1 (11719241_x_at) / Fold change /veh CAMK2N1 (11719241_x_at) / RFU C5orf56 (11738088_a_at) / Fold change /veh C5orf56 (11738088_a_at) / RFU OLFML3 (11715873_a_at) / Fold change /veh OLFML3 (11715873_a_at) / RFU LOC100653217 /// NTM (11731650_a_at) / Fold change /veh LOC100653217 /// NTM (11731650_a_at) / RFU MAPK11 (11762145_a_at) / Fold change /veh MAPK11 (11762145_a_at) / RFU FIZ1 (11724087_x_at) / Fold change /veh FIZ1 (11724087_x_at) / RFU OASL (11726364_x_at) / Fold change /veh OASL (11726364_x_at) / RFU SOX15 (11748057_x_at) / Fold change /veh SOX15 (11748057_x_at) / RFU CD79A (11719716_a_at) / Fold change /veh CD79A (11719716_a_at) / RFU HIST1H1D (11736915_at) / Fold change /veh HIST1H1D (11736915_at) / RFU CASKIN2 (11723855_a_at) / Fold change /veh CASKIN2 (11723855_a_at) / RFU LOC730098 (11760151_x_at) / Fold change /veh LOC730098 (11760151_x_at) / RFU OR4N2 (11742367_at) / Fold change /veh OR4N2 (11742367_at) / RFU PRRT2 (11749266_a_at) / Fold change /veh PRRT2 (11749266_a_at) / RFU SNX32 (11753110_a_at) / Fold change /veh SNX32 (11753110_a_at) / RFU CDHR5 (11726645_a_at) / Fold change /veh CDHR5 (11726645_a_at) / RFU RCAN1 (11760418_a_at) / Fold change /veh RCAN1 (11760418_a_at) / RFU FAM167A (11723789_a_at) / Fold change /veh FAM167A (11723789_a_at) / RFU FAM26E (11764081_at) / Fold change /veh FAM26E (11764081_at) / RFU ISYNA1 (11749810_s_at) / Fold change /veh ISYNA1 (11749810_s_at) / RFU ACY1 (11761880_at) / Fold change /veh ACY1 (11761880_at) / RFU 11764098_at / Fold change /veh 11764098_at / RFU SAMD14 (11745864_x_at) / Fold change /veh SAMD14 (11745864_x_at) / RFU NPB (11741838_a_at) / Fold change /veh NPB (11741838_a_at) / RFU TMPRSS6 (11731388_a_at) / Fold change /veh TMPRSS6 (11731388_a_at) / RFU KRTAP10-2 (11738614_at) / Fold change /veh KRTAP10-2 (11738614_at) / RFU ARHGAP8 /// PRR5-ARHGAP8 (11727945_x_at) / Fold change /veh ARHGAP8 /// PRR5-ARHGAP8 (11727945_x_at) / RFU KRTAP5-7 /// NADSYN1 (11734609_at) / Fold change /veh KRTAP5-7 /// NADSYN1 (11734609_at) / RFU RASL12 (11751679_a_at) / Fold change /veh RASL12 (11751679_a_at) / RFU CDKN2B (11736163_a_at) / Fold change /veh CDKN2B (11736163_a_at) / RFU PRF1 (11729649_at) / Fold change /veh PRF1 (11729649_at) / RFU, ZNF638 /// ZNF638-IT1 / Fold change vs veh, ZNF638 /// ZNF638-IT1 / RFU, PANK3 / Fold change vs veh, PANK3 / RFU, SH3YL1 / Fold change vs veh, SH3YL1 / RFU, ZEB2 / Fold change vs veh, ZEB2 / RFU, NRIP1 / Fold change vs veh, NRIP1 / RFU, PTTG1IP / Fold change vs veh, PTTG1IP / RFU, CAPN2 / Fold change vs veh, CAPN2 / RFU, MED14 / Fold change vs veh, MED14 / RFU, SNORA58 / Fold change vs veh, SNORA58 / RFU, C1orf63 / Fold change vs veh, C1orf63 / RFU, LRRFIP1 / Fold change vs veh, LRRFIP1 / RFU, NDUFAF7 / Fold change vs veh, NDUFAF7 / RFU, SLC12A2 / Fold change vs veh, SLC12A2 / RFU, IBTK / Fold change vs veh, IBTK / RFU, ESF1 / Fold change vs veh, ESF1 / Fold change vs veh, TMEM50B / RFU, TAOK1 / Fold change vs veh, TAOK1 / RFU, ACBD3 / Fold change vs veh, ACBD3 / RFU, TMA16 / Fold change vs veh, TMA16 / RFU, RWDD3 / Fold change vs veh, RWDD3 / RFU, BCAT1 / Fold change vs veh, BCAT1 / RFU, EDEM3 / Fold change vs veh, EDEM3 / RFU, TMEM33 / Fold change vs veh, TMEM33 / RFU, WDR75 / Fold change vs veh, WDR75 / RFU, AHCTF1 / Fold change vs veh, AHCTF1 / RFU, TFRC / Fold change vs veh, TFRC / RFU, ZDHHC17 / Fold change vs veh, ZDHHC17 / RFU, NOM1 / Fold change vs veh, NOM1 / RFU, ARL8B / Fold change vs veh, ARL8B / RFU, ZBTB11 / Fold change vs veh, ZBTB11 / RFU, TAMM41 / Fold change vs veh, TAMM41 / RFU, KIAA1704 /// LOC100996395 / Fold change vs veh, KIAA1704 /// LOC100996395 / RFU, ING1 / Fold change vs veh, ING1 / RFU, TRMT61B / Fold change vs veh, TRMT61B / RFU, FUBP3 / Fold change vs veh, FUBP3 / RFU, TP53 / Fold change vs veh, TP53 / RFU, TNKS2 / Fold change vs veh, TNKS2 / RFU, ZFP14 / Fold change vs veh, ZFP14 / RFU, ACTR2 / Fold change vs veh, ACTR2 / RFU, PPP3R1 / Fold change vs veh, PPP3R1 / RFU, PIK3R1 / Fold change vs veh, PIK3R1 / RFU, HNRNPA1 / Fold change vs veh, HNRNPA1 / RFU, RNF170 / Fold change vs veh, RNF170 / RFU, ZNF28 / Fold change vs veh, ZNF28 / RFU, RNGTT / Fold change vs veh, RNGTT / RFU, OGT / Fold change vs veh, OGT / RFU, BRD1 / Fold change vs veh, BRD1 / RFU, MARS / Fold change vs veh, MARS / RFU, ZNF655 / Fold change vs veh, ZNF655 / RFU, FAHD1 / Fold change vs veh, FAHD1 / RFU, BDP1 / Fold change vs veh, BDP1 / RFU, LRRCC1 / Fold change vs veh, LRRCC1 / RFU, ARID1A / Fold change vs veh, ARID1A / RFU, ZNF146 / Fold change vs veh, ZNF146 / RFU, ZNF330 / Fold change vs veh, ZNF330 / RFU, GPN3 / Fold change vs veh, GPN3 / RFU, C9orf123 / Fold change vs veh, C9orf123 / RFU, N4BP2L2 / Fold change vs veh, N4BP2L2 / RFU, ARFIP1 / Fold change vs veh, ARFIP1 / RFU, FAM179B / Fold change vs veh, FAM179B / RFU, BCL10 / Fold change vs veh, BCL10 / RFU, UHRF1BP1L / Fold change vs veh, UHRF1BP1L / RFU, BET1 / Fold change vs veh, BET1 / RFU, CNOT2 / Fold change vs veh, CNOT2 / RFU, ZNF268 / Fold change vs veh, ZNF268 / Fold change vs veh, ZNF507 / RFU, DGCR2 / Fold change vs veh, DGCR2 / RFU, WDSUB1 / Fold change vs veh, WDSUB1 / Fold change vs veh, HSP90B1 /// MIR3652 / RFU, ADSS / Fold change vs veh, ADSS / RFU, GK / Fold change vs veh, GK / RFU, ZNF148 / Fold change vs veh, ZNF148 / RFU, TAF9 / Fold change vs veh, TAF9 / RFU, SLC1A5 / Fold change vs veh, SLC1A5 / RFU, SLMO2 / Fold change vs veh, SLMO2 / RFU, ABCC4 / Fold change vs veh, ABCC4 / RFU, LOC101060439 /// RAP1B / Fold change vs veh, LOC101060439 /// RAP1B / RFU, RFX7 / Fold change vs veh, RFX7 / RFU, GTPBP10 / Fold change vs veh, GTPBP10 / RFU, CNEP1R1 / Fold change vs veh, CNEP1R1 / RFU, BIVM-ERCC5 /// ERCC5 / Fold change vs veh, BIVM-ERCC5 /// ERCC5 / RFU, ILF3 / Fold change vs veh, ILF3 / RFU 11762660_at / Fold change /veh 11762660_at / RFU VCAN (11757783_s_at) / Fold change /veh VCAN (11757783_s_at) / RFU DDX43 (11728927_at) / Fold change /veh DDX43 (11728927_at) / RFU KRT8 (11758188_x_at) / Fold change /veh KRT8 (11758188_x_at) / RFU NKD1 (11759106_at) / Fold change /veh NKD1 (11759106_at) / RFU SRD5A1 (11742802_a_at) / Fold change /veh SRD5A1 (11742802_a_at) / RFU TPSAB1 /// TPSB2 (11721975_s_at) / Fold change /veh TPSAB1 /// TPSB2 (11721975_s_at) / RFU GSTM3 (11746129_a_at) / Fold change /veh GSTM3 (11746129_a_at) / RFU IL23R (11737362_x_at) / Fold change /veh IL23R (11737362_x_at) / RFU TMEM51 (11727254_a_at) / Fold change /veh TMEM51 (11727254_a_at) / RFU PIWIL2 (11732686_x_at) / Fold change /veh PIWIL2 (11732686_x_at) / RFU ORM1 (11744905_x_at) / Fold change /veh ORM1 (11744905_x_at) / RFU CCDC152 (11743942_at) / Fold change /veh CCDC152 (11743942_at) / RFU ECM1 (11717891_a_at) / Fold change /veh ECM1 (11717891_a_at) / RFU IL23R (11748794_a_at) / Fold change /veh IL23R (11748794_a_at) / RFU TNFAIP8L3 (11732012_x_at) / Fold change /veh TNFAIP8L3 (11732012_x_at) / RFU MBOAT4 (11741988_at) / Fold change /veh MBOAT4 (11741988_at) / RFU 11764193_at / Fold change /veh 11764193_at / RFU TMEM53 (11763286_at) / Fold change /veh TMEM53 (11763286_at) / RFU MAGEB2 (11727129_at) / Fold change /veh MAGEB2 (11727129_at) / RFU TMEM200A (11744735_a_at) / Fold change /veh TMEM200A (11744735_a_at) / RFU CCDC152 (11751479_a_at) / Fold change /veh CCDC152 (11751479_a_at) / RFU FAM211A (11726209_a_at) / Fold change /veh FAM211A (11726209_a_at) / RFU RGS16 (11746705_a_at) / Fold change /veh RGS16 (11746705_a_at) / RFU VCAN (11755009_s_at) / Fold change /veh VCAN (11755009_s_at) / RFU RHOB (11743442_s_at) / Fold change /veh RHOB (11743442_s_at) / RFU RGS16 (11720943_a_at) / Fold change /veh RGS16 (11720943_a_at) / RFU RGS16 (11720944_at) / Fold change /veh RGS16 (11720944_at) / RFU, VPS4B / Fold change vs veh, VPS4B / RFU, CREB1 / Fold change vs veh, CREB1 / RFU, DNAJC13 / Fold change vs veh, DNAJC13 / RFU, GNAQ / Fold change vs veh, GNAQ / RFU, CDK5R1 / Fold change vs veh, CDK5R1 / RFU, ZRANB3 / Fold change vs veh, ZRANB3 / RFU, CUL4A / Fold change vs veh, CUL4A / RFU, CCNY / Fold change vs veh, CCNY / RFU, UFL1 / Fold change vs veh, UFL1 / RFU, COG3 / Fold change vs veh, COG3 / RFU, DIAPH2 / Fold change vs veh, DIAPH2 / RFU, SKA2 / Fold change vs veh, SKA2 / RFU, AFF3 / Fold change vs veh, AFF3 / RFU, LMF1 / Fold change vs veh, LMF1 / RFU, IPO11 / Fold change vs veh, IPO11 / RFU, DFFB / Fold change vs veh, DFFB / RFU, FOXP1 / Fold change vs veh, FOXP1 / RFU, CARD8 / Fold change vs veh, CARD8 / RFU, STRN3 / Fold change vs veh, STRN3 / RFU, ADK / Fold change vs veh, ADK / RFU, RASSF2 / Fold change vs veh, RASSF2 / RFU, WIPF1 / Fold change vs veh, WIPF1 / RFU, LARP1B / Fold change vs veh, LARP1B / RFU, RASA1 / Fold change vs veh, RASA1 / RFU, RB1 / Fold change vs veh, RB1 / RFU, PPFIA1 / Fold change vs veh, PPFIA1 / RFU, MAT2A / Fold change vs veh, MAT2A / RFU, CCT5 / Fold change vs veh, CCT5 / RFU, WDR92 / Fold change vs veh, WDR92 / RFU, CUX1 / Fold change vs veh, CUX1 / RFU, TTC7A / Fold change vs veh, TTC7A / RFU, TMEM135 / Fold change vs veh, TMEM135 / RFU, DEPTOR / Fold change vs veh, DEPTOR / RFU, CPM / Fold change vs veh, CPM / RFU, DNAJB6 / Fold change vs veh, DNAJB6 / RFU, CACNA2D3 / Fold change vs veh, CACNA2D3 / RFU, DTX4 / Fold change vs veh, DTX4 / RFU, TFCP2 / Fold change vs veh, TFCP2 / RFU, GMCL1 /// GMCL1P1 / Fold change vs veh, GMCL1 /// GMCL1P1 / RFU, AEBP2 / Fold change vs veh, AEBP2 / RFU, SNHG1 /// SNORD22 /// SNORD25 /// SNORD26 /// SNORD27 /// SNORD28 /// SNORD29 /// SNORD31 / Fold change vs veh, SNHG1 /// SNORD22 /// SNORD25 /// SNORD26 /// SNORD27 /// SNORD28 /// SNORD29 /// SNORD31 / Fold change (Aza/veh), C12orf56 (ProbeSet 11735607_a_at) / Fold change (ACY-1035/veh), C12orf56 (ProbeSet 11735607_a_at) / Fold change (Aza/veh), FGFR1OP (ProbeSet 11751329_s_at) / Fold change (ACY-1035/veh), FGFR1OP (ProbeSet 11751329_s_at) / Fold change (Aza/veh), VPS36 (ProbeSet 11739960_a_at) / Fold change (ACY-1035/veh), VPS36 (ProbeSet 11739960_a_at) / RFU SYPL1 (11715823_x_at) / Fold change /veh SYPL1 (11715823_x_at) / RFU IGFBP7 (11715501_s_at) / Fold change /veh IGFBP7 (11715501_s_at) / RFU REEP3 (11722064_at) / Fold change /veh REEP3 (11722064_at) / RFU IGLL1 (11728026_x_at) / Fold change /veh IGLL1 (11728026_x_at): dose or concentration left out as unconfirmed",
  "conditions": "ProbeSet 11752001_a_at; LIST D",
  "data": [
    {"compound": "Nc1ccc(-c2cccs2)cc1NC(=O)c1ccc2c(c1)cc(C1CC1)n2CCN1CCOCC1", "note": "[ACY-1035]", "values": [
      {"measurement": "RFU, CUL4A", "result": 438.04, "unit": "RFU"}
    ]}
  ]
}
